The numbers were not newly measured in patent US8871945B2, “Process for preparation of rufinamide” (priority 2010, dated 2014), which cites them from elsewhere.

As a reminder, the EC50 is the midpoint of the concentration-response curve.

The subject of series [1] is sodium channels. The settings on record: Rufinamide ≧1 μM; after a prolonged prepulse; cultured cortical neurons.
Series [2] concerns sodium channels. The settings on record: cultured cortical neurons; read-out: EC50 for limiting sustained repetitive firing of sodium-dependent action potentials.

Take `NC(=O)c1cn(Cc2c(F)cccc2F)nn1` [Rufinamide, 1-(2,6-difluorobenzyl)-1H-1,2,3-triazole-4-carboxamide]: in series [1], the “sodium channel recovery from inactivation” value is “significantly slowed”. The EC50 in series [2] was 3.8 µM.
